Measurements from US9163021B2, “Pyrrolo[3,2-c]pyridine tropomyosin-related kinase inhibitors” (Pfizer Limited, priority 2012, dated 2015).

Target: TRKA (Homo sapiens (Human), UniProt P04629)
Assay: Isolated TRK enzyme assay (HTRF KinEASE-TK), PV3144 TrkA enzyme assay
Type: biochemical
Conditions: arithmetic mean where more than one reading
In short: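 His-tagged TrkA cytoplasmic domain preactivated with ATP 20 min, then with compound 20 min at room temperature before 1 µM final biotin-TK substrate; HTRF 665/620 nm read.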

TRKA, sequence (P04629 441-796): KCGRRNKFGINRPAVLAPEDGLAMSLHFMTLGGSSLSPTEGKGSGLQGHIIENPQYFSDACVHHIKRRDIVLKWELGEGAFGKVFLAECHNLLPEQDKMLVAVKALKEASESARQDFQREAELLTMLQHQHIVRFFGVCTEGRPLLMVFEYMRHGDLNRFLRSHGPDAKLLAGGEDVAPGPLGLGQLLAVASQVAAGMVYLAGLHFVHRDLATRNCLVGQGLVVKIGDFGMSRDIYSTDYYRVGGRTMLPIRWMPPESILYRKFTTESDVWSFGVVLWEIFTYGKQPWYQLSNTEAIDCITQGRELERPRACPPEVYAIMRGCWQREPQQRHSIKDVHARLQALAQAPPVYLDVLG

Row | SMILES | IC50 [nM]
1 | CC(C)n1cc(C(=O)c2cc(NC(=O)Cn3ccc(C(F)(F)F)n3)ccn2)c2cnccc21 [Example 27, N-(2-{[1-(propan-2-yl)-1H-pyrrolo[3,2-c]pyridin-3-yl]carbonyl}pyridin-4-yl)-2[3-(trifluoromethyl)-1H-pyrazol-1-yl]acetamide] | 89.7
2 | Cc1cc(C(F)(F)F)nn1CC(=O)Nc1ccnc(C(=O)c2cn(C(C)C)c3ccncc23)c1 [Example 28, 2-[5-methyl-3-(trifluoromethyl)-1H-pyrazol-1-yl]-N-(2-{[1-(propan-2-yl)-1H-pyrrolo[3,2-c]pyridin-3-yl]carbonyl}pyridin-4-yl)acetamide] | 10.6
3 | CC(C)n1cc(C(=O)c2cc(NC(=O)Cn3ccc(C4CC4)n3)ccn2)c2cnccc21 [Example 29, 2-(3-cyclopropyl-1H-pyrazol-1-yl)-N-(2-{[1-(propan-2-yl)-1H-pyrrolo[3,2-c]pyridin-3-yl]carbonyl}pyridin-4-yl)acetamide] | 106
4 | CC(C)n1cc(C(=O)c2cc(NC(=O)Cn3cc(C(F)(F)F)cn3)ccn2)c2cnccc21 [Example 30, N-(2-{[1-(propan-2-yl)-1H-pyrrolo[3,2-c]pyridin-3-yl]carbonyl}pyridin-4-yl)-2[4-(trifluoromethyl)-1H-pyrazol-1-yl]acetamide] | 13.3
5 | CC(C)n1cc(C(=O)c2cncc(NC(=O)Cn3cc(C(F)(F)F)cn3)c2)c2cncc(F)c21 [Example 31, N-(5-{[7-fluoro-1-(propan-2-yl)-1H-pyrrolo[3,2-c]pyridin-3-yl]carbonyl}pyridin-3-yl)-2[4-(trifluoromethyl)-1H-pyrazol-1-yl]acetamide] | 9.66
6 | Cc1cc(C(F)(F)F)nn1CC(=O)Nc1cncc(C(=O)c2cn(C(C)C)c3c(F)cncc23)c1 [Example 32, N-(5-{[7-fluoro-1-(propan-2-yl)-1H-pyrrolo[3,2-c]pyridin-3-yl]carbonyl}pyridin-3-yl)-2-[5-methyl-3-(trifluoromethyl)-1H-pyrazol-1-yl]acetamide] | 11.4
7 | CC(C)(CO)n1cc(C(=O)c2cncc(NC(=O)Cc3ccc(C(F)(F)F)cc3)c2)c2cnccc21 [Example 33, N-(5-{[1-(1-hydroxy-2-methylpropan-2-yl)-1H-pyrrolo[3,2-c]pyridin-3-yl]carbonyl}pyridin-3-yl)-2-[4-(trifluoromethyl)phenyl]acetamide] | 3.11
8 | CC(C)n1cc(C(=O)c2cncc(NC(=O)Cc3ccc(C#N)c(C(F)(F)F)c3)c2)c2cnccc21 [Example 37, 2-[4-cyano-3-(trifluoromethyl)phenyl]-N-(5-{[1-(propan-2-yl)-1H-pyrrolo[3,2-c]pyridin-3-yl]carbonyl}pyridin-3-yl)acetamide] | 51.7
9 | CC(C)n1cc(C(=O)c2cncc(NC(=O)Cn3cc(C(F)(F)F)nn3)c2)c2cnccc21 [Example 38, N-(5-{[1-(propan-2-yl)-1H-pyrrolo[3,2-c]pyridin-3-yl]carbonyl}pyridin-3-yl)-2[4-(trifluoromethyl)-1H-1,2,3-triazol-1-yl]acetamide] | 147
10 | COCc1nc(CC(=O)Nc2cncc(C(=O)c3cn(C(C)C)c4ccncc34)c2)c(C2CC2)o1 [Example 39, 2-[5-cyclopropyl-2-(methoxymethyl)-1,3-oxazol-4-yl]-N-(5-{[1-(propan-2-yl)-1H-pyrrolo[3,2-c]pyridin-3-yl]carbonyl}pyridin-3-yl)acetamide] | 181
11 | Cc1nonc1CC(=O)Nc1cncc(C(=O)c2cn(C(C)C)c3ccncc23)c1 [Example 40, 2-(4-methyl-1,2,5-oxadiazol-3-yl)-N-(5-{[1-(propan-2-yl)-1H-pyrrolo[3,2-c]pyridin-3-yl]carbonyl}pyridin-3-yl)acetamide] | 1730
12 | CC(C)n1cc(C(=O)c2cncc(NC(=O)Cc3cn(C)cn3)c2)c2cnccc21 [Example 41, 2-(1-methyl-1H-imidazol-4-yl)-N-(5-{[1-(propan-2-yl)-1H-pyrrolo[3,2-c]pyridin-3-yl]carbonyl}pyridin-3-yl)acetamide] | 3330
13 | CC(C)n1cc(C(=O)c2cncc(NC(=O)Cc3nc(C(C)(C)C)nn3C)c2)c2cnccc21 [Example 42, 2-(3-tert-butyl-1-methyl-1H-1,2,4-triazol-5-yl)-N-(5-{[1-(propan-2-yl)-1H-pyrrolo[3,2-c]pyridin-3-yl]carbonyl}pyridin-3-yl)acetamide] | 179
14 | CC(C)n1cc(C(=O)c2cncc(NC(=O)Cc3coc(C4CC4)n3)c2)c2cnccc21 [Example 43, 2-(2-cyclopropyl-1,3-oxazol-4-yl)-N-(5-{[1-(propan-2-yl)-1H-pyrrolo[3,2-c]pyridin-3-yl]carbonyl}pyridin-3-yl)acetamide] | 118
15 | COCCn1nc(C(C)(C)C)nc1CC(=O)Nc1cncc(C(=O)c2cn(C(C)C)c3ccncc23)c1 [Example 44, 2-[3-tert-butyl-1-(2-methoxyethyl)-1H-1,2,4-triazol-5-yl]-N-(5-{[1-(propan-2-yl)-1H-pyrrolo[3,2-c]pyridin-3-yl]carbonyl}pyridin-3-yl)acetamide] | 531
16 | CC(C)n1cc(C(=O)c2cncc(NC(=O)Cc3cncn3C)c2)c2cnccc21 [Example 45, 2-(1-methyl-1H-imidazol-5-yl)-N-(5-{[1-(propan-2-yl)-1H-pyrrolo[3,2-c]pyridin-3-yl]carbonyl}pyridin-3-yl)acetamide] | 1570

Row | SMILES | IC50 [nM]
17 | CC(C)n1cc(C(=O)c2cncc(NC(=O)Cc3nccn3C)c2)c2cnccc21 [Example 46, 2-(1-methyl-1H-imidazol-2-yl)-N-(5-{[1-(propan-2-yl)-1H-pyrrolo[3,2-c]pyridin-3-yl]carbonyl}pyridin-3-yl)acetamide] | 3080
18 | COc1ncc(C(=O)c2cn(C(C)C)c3ccncc23)cc1NC(=O)Cc1ccc(C#N)cc1 [Example 47, 2-(4-cyanophenyl)-N-(2-methoxy-5-{[1-(propan-2-yl)-1H-pyrrolo[3,2-c]pyridin-3-yl]carbonyl}pyridin-3-yl)acetamide] | 187
19 | COc1ncc(C(=O)c2cn(C(C)C)c3ccncc23)cc1NC(=O)Cn1nc(C(F)(F)F)cc1C [Example 48, N-(2-methoxy-5-{[1-(propan-2-yl)-1H-pyrrolo[3,2-c]pyridin-3-yl]carbonyl}pyridin-3-yl)-2-[5-methyl-3-(trifluoromethyl)-1H-pyrazol-1-yl]acetamide] | 33.8
20 | CC(C)n1cc(C(=O)c2cncc(NC(=O)Cc3ccc(C#N)cc3)c2)c2cnccc21 [Example 49, 2-(4-cyanophenyl)-N-(5-{[1-(propan-2-yl)-1H-pyrrolo[3,2-c]pyridin-3-yl]carbonyl}pyridin-3-yl)acetamide] | 180
21 | CC(C)n1cc(CC(=O)Nc2cncc(C(=O)c3cn(C(C)C)c4ccncc34)c2)c(C(F)(F)F)n1 [Example 50, N-(5-{[1-(propan-2-yl)-1H-pyrrolo[3,2-c]pyridin-3-yl]carbonyl}pyridin-3-yl)-2-[1-(propan-2-yl)-3-(trifluoromethyl)-1H-pyrazol-4-yl]acetamide] | 133
22 | CC(C)n1cc(C(=O)c2cncc(NC(=O)Cn3cc(C4CC4)nn3)c2)c2cnccc21 [Example 51, 2-(4-cyclopropyl-1H-1,2,3-triazol-1-yl)-N-(5-{[1-(propan-2-yl)-1H-pyrrolo[3,2-c]pyridin-3-yl]carbonyl}pyridin-3-yl)acetamide] | 68.2
23 | CC(C)n1cc(C(=O)c2cc(NC(=O)Cn3cc(C4CC4)nn3)ccn2)c2cnccc21 [Example 52, 2-(4-cyclopropyl-1H-1,2,3-triazol-1-yl)-N-(2-{[1-(propan-2-yl)-1H-pyrrolo[3,2-c]pyridin-3-yl]carbonyl}pyridin-4-yl)acetamide] | 137
24 | CC(C)n1cc(C(=O)c2cc(NC(=O)Cn3cc(C(F)(F)F)nn3)ccn2)c2cnccc21 [Example 53, N-(2-{[1-(propan-2-yl)-1H-pyrrolo[3,2-c]pyridin-3-yl]carbonyl}pyridin-4-yl)-2-[4-(trifluoromethyl)-1H-1,2,3-triazol-1-yl]acetamide] | 110
25 | CC(C)n1cc(C(=O)c2cc(NC(=O)Cc3ccc(C#N)cc3)ccn2)c2cnccc21 [Example 54, 2-(4-cyanophenyl)-N-(2-{[1-(propan-2-yl)-1H-pyrrolo[3,2-c]pyridin-3-yl]carbonyl}pyridin-4-yl)acetamide] | 176
26 | CC(C)n1cc(C(=O)c2cc(NC(=O)Cc3ccc(Cl)cn3)ccn2)c2cnccc21 [Example 55, 2-(5-chloropyridin-2-yl)-N-(2-{[1-(propan-2-yl)-1H-pyrrolo[3,2-c]pyridin-3-yl]carbonyl}pyridin-4-yl)acetamide] | 73.8
27 | CC(C)n1cc(C(=O)c2cc(NC(=O)Cc3cnn(C4CC4)c3C(F)(F)F)ccn2)c2cnccc21 [Example 56, 2-[1-cyclopropyl-5-(trifluoromethyl)-1H-pyrazol-4-yl]-N-(2-{[1-(propan-2-yl)-1H-pyrrolo[3,2-c]pyridin-3-yl]carbonyl}pyridin-4-yl)acetamide] | 177
28 | CC(C)n1cc(C(=O)c2cc(NC(=O)Cc3cn(C4CC4)nc3C(F)(F)F)ccn2)c2cnccc21 [Example 57] | 1680
29 | Cc1nn(C)cc1CC(=O)Nc1ccnc(C(=O)c2cn(C(C)C)c3ccncc23)c1 [Example 58, 2-(1,3-dimethyl-1H-pyrazol-4-yl)-N-(2-{[1-(propan-2-yl)-1H-pyrrolo[3,2-c]pyridin-3-yl]carbonyl}pyridin-4-yl)acetamide] | 6520
30 | CC(CO)n1cc(C(=O)c2cncc(NC(=O)Cn3ccc(C(F)(F)F)n3)c2)c2cnccc21 (centres unmarked) [Example 60, N-(5-{[1-(1-hydroxypropan-2-yl)-1H-pyrrolo[3,2-c]pyridin-3-yl]carbonyl}pyridin-3-yl)-2-[3-(trifluoromethyl)-1H-pyrazol-1-yl]acetamide] | 44.7
31 | CC(CO)n1cc(C(=O)c2cncc(NC(=O)Cc3ccc(C#N)cc3)c2)c2cnccc21 (centres unmarked) [Example 67] | 101
32 | CC(CO)n1cc(C(=O)c2cncc(NC(=O)Cn3ccc(C(F)(F)F)n3)c2)c2cnccc21 (centres unmarked) [Example 75, N-(5-{[1-(1-hydroxypropan-2-yl)-1H-pyrrolo[3,2-c]pyridin-3-yl]carbonyl}pyridin-3-yl)-2-[3-(trifluoromethyl)-1H-pyrazol-1-yl]acetamide] | 44.9
